Measurements as given in publication PMC11402846, “Does a postmortem redistribution affect the concentrations of the 7 azaindole-derived synthetic cannabinoid 5F-MDMB-P7AICA in tissues and body fluids following pulmonary administration to pigs?” (Archives of Toxicology, 2024).

Experiments:
P-glycoprotein = tested on: P-glycoprotein; design: method as in unpublished data of the authors; conditions: ref unpublished data of the authors; cited from earlier work
[1] = design: method as in Walle et al. [2023]; conditions: authentic fatal case, comparable survival time after drug intake; ref Walle et al. [2023]; cited from earlier work
[2] = Perimortem and postmortem concentrations in tissues and body fluids after pulmonary administration of 5F-MDMB-P7AICA to pigs (LC-MS/MS); assay type: in vivo; conditions: pig
Protocol: The experiments were conducted in compliance with the German legislation on protection of animals and the National Institutes of Health Guide for the Care and Use of Laboratory Animals (permission number 32/2018). Six domestic male pigs (Swabian Hall strain; body weight [BW] 40–51.2 kg, 3 months old) were kept with free access to water and standard daily food (OlymPig fattening feed, Raiffeisen, Münster, Germany). One night prior to the experiments, the animals were kept fasting. […] The room temperature was 22 ± 1 °C with a humidity of 55 ± 10%.
As previously described (Doerr et al. [2020]; Schaefer et al. [2019], [2020a]), an ethanolic solution of 5 mg/mL 5F-MDMB-P7AICA was prepared. An aliquot of 1.600–2.048 mL was filled up with ethanol to a total volume of 2 mL, if needed to achieve a concentration of 200 µg per kg BW. The SC was administered inhalatively over 6.5–8 min, using a M-Neb flow + ventilation ultrasonic nebulizer MN-300/7 (Nebutec, Elsenfeld, Germany) in the inspiration-triggered mode.
Animal euthanasia was conducted eight hours after the drug administration using T 61 (embutramide, 0.12 mL/kg BW, Intervet Deutschland GmbH, Unterschleißheim, Germany). Afterwards, the abdominal cavity was opened. Samples of the following organs, tissues and body fluids were collected (PMI 0) and stored at − 20 °C until further analysis: Brain (cerebrum), lungs and liver with no differentiation between the lobes, kidneys, muscle tissue (from the hindleg), adipose tissue (subcutaneous (sc), dorsal, perirenal), bile fluid, duodenum content, urine (only at PMI 0) and PB (V. jugularis) as well as CB.
The abdominal cavity was sutured leaving the organs in situ and the animal bodies were kept at room temperature in a supine position. Analogously, samples were taken again after 24, 48 and 72 h (PMI 1–3), respectively. Yet, PM PB specimens were obtained by sampling the coagulated blood from the V. femoralis or V. brachialis. For this purpose, the whole vessel was sampled and the blood was drawn therefrom using a pipette with a wide lumen.
Specimens were prepared according to a previous published method (Schaefer et al. [2017], [2019], [2020a]) with changes regarding the applied buffers and the amount of acetonitrile. An amount of 2 g of solid tissue (brain, lung, liver, kidney and muscle tissue) was homogenized (1:5 w/w with water), respectively and 1 g of body fluids (bile fluid, duodenum content, and urine) was diluted (1:10 w/w for bile and duodenum content, 1:5 w/w for urine, respectively, with water). The samples were stored at − 20 °C.
To determine the standard addition calibration curves, four 0.5 g aliquots were added to 20 µL of an ethanolic stable-isotope-labeled internal standard solution (SIL-IS, 1 ng/20 µL AB-FUBINACA-d4) and 25 µL of ethanol or an ethanolic solution of the analytes.
Subsequently, the solution was mixed with 500 µL of acetate buffer and 50 µL of β-glucuronidase/arylsulfatase and incubated for 2 h at 60 °C to induce enzymatic hydrolysis of the glucuronidated DBA (phase-II metabolite).
For the following protein precipitation, the samples were mixed with 500 µL of acetonitrile and centrifuged at 3500g for 8 min. The supernatants were transferred to 1 mL phosphate buffer (pH 9) vortexed and centrifuged at 3500g for 8 min again.
Solid phase extraction (SPE) was carried out using Strata C18 end capped cartridges (Phenomenex, Aschaffenburg, Germany), previously conditioned with 2 × 3 mL methanol and 3 mL phosphate buffer. After loading the samples, the columns were washed with 3 mL phosphate buffer, 3 mL acetic acid (0.25 M) and 3 mL deionized water, respectively. 60 μL acetone was added and columns were dried for 5 min using negative pressure (about 33 kPa). Thereafter, the analytes were eluted with a mixture of 1.5 mL methanol-acetone (1:1, v/v) and the eluate was evaporated under a gentle stream of nitrogen at 60 °C. […]

[3] = 200 µg/kg BW inhalative, PMI 0 (8 h after administration)
[4] = 200 µg/kg BW inhalative, PMI 1 (24 h after euthanasia, room temperature)
[5] = 200 µg/kg BW inhalative, PMI 2 (48 h after euthanasia, room temperature)
[6] = 200 µg/kg BW inhalative, PMI 3 (72 h after euthanasia, room temperature)

For `COC(=O)C(NC(=O)c1cn(CCCCCF)c2ncccc12)C(C)(C)C` (stereo not shown) [5F-MDMB-P7AICA, methyl[2-[1-(5-fluoropentyl)-1H-pyrrolo[2,3-b]pyridin-3-yl]formamido]-3,3-dimethylbutanoate], the “substrate of the P-glycoprotein” value (P-glycoprotein) is given as “is a substrate of the P-glycoprotein”, the “CB concentration in fatal case” value [1] is given as 0.69 ng/mL and the “PB concentration in fatal case” value [1] is given as 1.2 ng/mL. For the same molecule, the “Mean concentration ± SD in CB (central blood)” value (“Mean concentration ± SD in CB” for short) [2, 3] was 0.21 ± 0.10 n = 6 ng/mL, the “Mean concentration ± SD in bile fluid” value [2, 3] was 11 ± 9.9 n = 6 ng/g and the “Mean concentration ± SD in brain” value [2, 3] was 0.33 ± 0.15 n = 6 ng/g. The “Mean concentration ± SD in dorsal fat” value [2, 3] was 30 ± 16 n = 6 ng/g, the “Mean concentration ± SD in duodenum content” value [2, 3] was 2.7 ± 3.1 n = 6 ng/g and the “Mean concentration ± SD in kidney” value [2, 3] was “No parent compound could be found and neg”. For the same molecule, the “Mean concentration ± SD in liver” value [2, 3] was 0.16 ± 0.043 n = 3 ng/g, the “Mean concentration ± SD in lung” value [2, 3] was 0.41 ± 0.26 n = 6 ng/g and the “Mean concentration ± SD in muscle” value [2, 3] was 0.62 ± 0.10 n = 6 ng/g. The “Mean concentration ± SD in perirenal fat” value [2, 3] was 33 ± 31 n = 6 ng/g, the “Mean concentration ± SD in s.c. fat” value [2, 3] was 51 ± 30 n = 6 ng/g and the “Mean concentration ± SD in urine” value [2, 3] was “No parent compound could be found and neg”. The “Mean concentration ± SD in CB” value [2, 4] was 0.25 ± 0.10 n = 5 ng/mL, the “Mean concentration ± SD in PB (peripheral blood)” value (“Mean concentration ± SD in PB” for short) [2, 4] was 0.67 ± 0.37 n = 6 ng/mL and the “Mean concentration ± SD in bile fluid” value [2, 4] was 3.5 ± 3.1 n = 6 ng/g. The “Mean concentration ± SD in brain” value [2, 4] was 0.23 ± 0.10 n = 6 ng/g, the “Mean concentration ± SD in dorsal fat” value [2, 4] was 35 ± 26 n = 6 ng/g and the “Mean concentration ± SD in duodenum content” value [2, 4] was 0.44 ± 0.22 n = 6 ng/g. The “Mean concentration ± SD in kidney” value [2, 4] was 0.090–0.10 n = 2 ng/g, the “Mean concentration ± SD in liver” value [2, 4] was 0.21–0.29 n = 2 ng/g and the “Mean concentration ± SD in lung” value [2, 4] was 0.50 ± 0.085 n = 3 ng/g. The “Mean concentration ± SD in muscle” value [2, 4] was 0.77 ± 0.28 n = 6 ng/g, the “Mean concentration ± SD in perirenal fat” value [2, 4] was 30 ± 20 n = 6 ng/g and the “Mean concentration ± SD in s.c. fat” value [2, 4] was 53 ± 43 n = 6 ng/g. The “Mean concentration ± SD in CB” value [2, 5] was 0.20 ± 0.090 n = 5 ng/mL, the “Mean concentration ± SD in PB” value [2, 5] was 0.58 ± 0.35 n = 6 ng/mL and the “Mean concentration ± SD in brain” value [2, 5] was 0.10 ± 0.065 n = 6 ng/g. For the same molecule, the “Mean concentration ± SD in dorsal fat” value [2, 5] was 25 ± 15 n = 6 ng/g, the “Mean concentration ± SD in duodenum content” value [2, 5] was 0.59 ± 0.48 n = 5 ng/g and the “Mean concentration ± SD in kidney” value [2, 5] was 0.17 ± 0.16 n = 5 ng/g. The “Mean concentration ± SD in liver” value [2, 5] was 1.1 ± 2.0 n = 6 ng/g, the “Mean concentration ± SD in lung” value [2, 5] was 0.65 ± 0.37 n = 5 ng/g and the “Mean concentration ± SD in muscle” value [2, 5] was 1.0 ± 0.67 n = 6 ng/g. The “Mean concentration ± SD in perirenal fat” value [2, 5] was 32 ± 35 n = 6 ng/g, the “Mean concentration ± SD in s.c. fat” value [2, 5] was 40 ± 28 n = 6 ng/g and the “Mean concentration ± SD in CB” value [2, 6] was 0.24 ± 0.11 n = 5 ng/mL. For the same molecule, the “Mean concentration ± SD in PB” value [2, 6] was 0.43 ± 0.16 n = 6 ng/mL, the “Mean concentration ± SD in brain” value [2, 6] was 0.16 ± 0.16 n = 4 ng/g and the “Mean concentration ± SD in dorsal fat” value [2, 6] was 33 ± 27 n = 6 ng/g. The “Mean concentration ± SD in duodenum content” value [2, 6] was 0.89 ± 0.71 n = 6 ng/g, the “Mean concentration ± SD in kidney” value [2, 6] was 0.23 ± 0.088 n = 5 ng/g and the “Mean concentration ± SD in liver” value [2, 6] was 0.44 ± 0.18 n = 5 ng/g. The “Mean concentration ± SD in lung” value [2, 6] was 0.71 ± 0.54 n = 5 ng/g, the “Mean concentration ± SD in muscle” value [2, 6] was 2.3 ± 2.1 n = 6 ng/g and the “Mean concentration ± SD in perirenal fat” value [2, 6] was 22 ± 19 n = 6 ng/g. The “Mean concentration ± SD in s.c. fat” value [2, 6] was 35 ± 26 n = 6 ng/g, the “Concentration in bile fluid” value ([2]; 200 µg/kg BW inhalative, PMI 3 (72 h after euthanasia, room temperature), only sampled from 2 pigs) was 3.6–7.4 n = 2^2 ng/g and the “Mean concentration ± SD in PB” value ([2]; 5F-MDMB-P7AICA 200 µg/kg BW inhalative, PMI 0 (8 h after administration)) was 0.57 ± 0.19 n = 6 ng/mL. For the same molecule, the “Postmortem redistribution (PMR)” value ([2]; 3 days storage at room temperature) was “no relevant PMR was observed”, the “central-to-peripheral blood (C/P) concentration ratio” value ([2]; PMI 0) was “lower than 1” and the “liver-to-peripheral blood (L/P) ratio” value ([2]; PMI 0) was < 5. For the same molecule, the C/P concentration ratio ([2]; PMI 1–3) was < 1, the L/P concentration ratio ([2]; PMI 1–3) was < 5 and the “Concentration change in liver specimens” value ([2]; PMI 2 and 3 versus PMI 0, p < 0.05) was “significant higher”. For the same molecule, the “Concentration change in muscle tissue” value ([2]; from PMI 0 to PMI 3, p < 0.05) was “significantly increased”.
